The values that follow come from patent US20230365592A1 (Agios Pharmaceuticals, Inc., priority 2022, published 2023).

For orientation: AC50 means the midpoint of the concentration-response curve, whichever way the signal moves.

This assay concerns the target T1, human PAH with the R408W mutation (Homo sapiens, UniProt P00439, R408W).
T1 construct: expressed in transfected cells
T1 sequence (P00439 1-452 R408W): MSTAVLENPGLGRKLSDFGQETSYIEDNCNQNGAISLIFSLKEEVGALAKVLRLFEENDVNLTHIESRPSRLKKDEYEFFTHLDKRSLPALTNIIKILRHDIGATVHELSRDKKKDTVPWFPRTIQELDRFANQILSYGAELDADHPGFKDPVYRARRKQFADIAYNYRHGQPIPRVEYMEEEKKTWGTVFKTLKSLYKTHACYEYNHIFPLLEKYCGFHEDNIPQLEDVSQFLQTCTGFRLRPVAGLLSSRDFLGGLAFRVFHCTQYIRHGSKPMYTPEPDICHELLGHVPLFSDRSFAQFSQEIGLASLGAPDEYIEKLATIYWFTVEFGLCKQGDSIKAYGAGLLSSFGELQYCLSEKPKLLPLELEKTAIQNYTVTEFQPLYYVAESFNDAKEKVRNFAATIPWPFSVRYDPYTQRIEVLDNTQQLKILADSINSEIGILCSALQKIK
As to the kind of experiment: Cell Based Phenylalanine Flux Assay.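 Note: after compound treatment, cells received sepiapterin plus isotope-labelled Phenylalanine for 4 hours, then labelled Tyrosine in the medium was quantified, 10-point 2-fold dilution series run in duplicate.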 Particulars: A375 cells expressing human R408W PAH; 24 hrs compound incubation; 13C-Tyrosine by LC-MS; average where tested multiple times; read-out: AC50.
With `O=C(c1nnc(-c2ncccn2)o1)N1CCc2[nH]cnc2[C@@H]1c1cc2c(C(F)(F)F)cccn2n1` [Example 1380, (R)-(5-(pyrimidin-2-yl)-1,3,4-oxadiazol-2-yl)(4-(4-(trifluoromethyl)pyrazolo[1,5-a]pyridin-2-yl)-6,7-dihydro-1H-imidazo[4,5-c]pyridin-5(4H)-yl)methanone], the AC50 lay in the range of 1 to 5 µM. The result for `O=C(c1nnc(-c2ncccn2)o1)N1CCc2[nH]cnc2[C@H]1c1cc2c(C(F)(F)F)cccn2n1` [Example 1381, (S)-(5-(pyrimidin-2-yl)-1,3,4-oxadiazol-2-yl)(4-(4-(trifluoromethyl)pyrazolo[1,5-a]pyridin-2-yl)-6,7-dihydro-1H-imidazo[4,5-c]pyridin-5(4H)-yl)methanone] reads 0.5 to 1 µM; that for `Cc1cccc(-c2nnc(C(=O)N3CCc4[nH]cnc4[C@@H]3c3cc4ccccn4n3)o2)n1` [Example 1383, (R)-(5-(6-methylpyridin-2-yl)-1,3,4-oxadiazol-2-yl)(4-(pyrazolo[1,5-a]pyridin-2-yl)-6,7-dihydro-1H-imidazo[4,5-c]pyridin-5(4H)-yl)methanone], over 5 µM; that for `Cn1nc(C(F)F)cc1C(=O)N1CCc2[nH]cnc2[C@H]1c1cc2cccc(Cl)n2n1` [Example 1384, (S)-(4-(7-chloropyrazolo[1,5-a]pyridin-2-yl)-6,7-dihydro-1H-imidazo[4,5-c]pyridin-5(4H)-yl)(3-(difluoromethyl)-1-methyl-1H-pyrazol-5-yl)methanone], under 0.5 µM. The result for `Cc1cccc2cc([C@@H]3c4nc[nH]c4CCN3C(=O)c3cc(C(F)F)nn3C)nn12` [Example 1388, (S)-(3-(difluoromethyl)-1-methyl-1H-pyrazol-5-yl)(4-(7-methylpyrazolo[1,5-a]pyridin-2-yl)-6,7-dihydro-1H-imidazo[4,5-c]pyridin-5(4H)-yl)methanone] reads under 0.5 µM; that for `Cc1cccc2cc([C@H]3c4nc[nH]c4CCN3C(=O)c3cc(C(F)F)nn3C)nn12` [Example 1389, (R)-(3-(difluoromethyl)-1-methyl-1H-pyrazol-5-yl)(4-(7-methylpyrazolo[1,5-a]pyridin-2-yl)-6,7-dihydro-1H-imidazo[4,5-c]pyridin-5(4H)-yl)methanone], over 5 µM; that for `O=C(c1nnc(C2CC2)o1)N1CCc2[nH]cnc2[C@H]1c1cc2cccc(C(F)F)n2n1` [Example 1390, (S)-(5-cyclopropyl-1,3,4-oxadiazol-2-yl)(4-(7-(difluoromethyl)pyrazolo[1,5-a]pyridin-2-yl)-6,7-dihydro-1H-imidazo[4,5-c]pyridin-5(4H)-yl)methanone], 0.5 to 1 µM. The result for `O=C(c1nnc(C2CC2)o1)N1CCc2[nH]cnc2[C@@H]1c1cc2cccc(C(F)F)n2n1` [Example 1391, (R)-(5-cyclopropyl-1,3,4-oxadiazol-2-yl)(4-(7-(difluoromethyl)pyrazolo[1,5-a]pyridin-2-yl)-6,7-dihydro-1H-imidazo[4,5-c]pyridin-5(4H)-yl)methanone] reads 1 to 5 µM. Regarding `O=C(c1nnc(-c2ncccn2)o1)N1CCc2[nH]cnc2[C@@H]1c1cc2cccc(Cl)n2n1` [Example 1392, (R)-(4-(7-chloropyrazolo[1,5-a]pyridin-2-yl)-6,7-dihydro-1H-imidazo[4,5-c]pyridin-5(4H)-yl)(5-(pyrimidin-2-yl)-1,3,4-oxadiazol-2-yl)methanone], the AC50 was 1 to 5 µM. Turning to `O=C(c1nnc(-c2ncccn2)o1)N1CCc2[nH]cnc2[C@H]1c1cc2cccc(Cl)n2n1` [Example 1393, (S)-(4-(7-chloropyrazolo[1,5-a]pyridin-2-yl)-6,7-dihydro-1H-imidazo[4,5-c]pyridin-5(4H)-yl)(5-(pyrimidin-2-yl)-1,3,4-oxadiazol-2-yl)methanone], the AC50 is under 0.5 µM. With `Cc1ncccc1-c1nnc(C(=O)N2CCc3[nH]cnc3[C@H]2c2cc3c(C(F)F)cccn3n2)o1` [Example 1394, (S)-(4-(4-(difluoromethyl)pyrazolo[1,5-a]pyridin-2-yl)-6,7-dihydro-1H-imidazo[4,5-c]pyridin-5(4H)-yl)(5-(2-methylpyridin-3-yl)-1,3,4-oxadiazol-2-yl)methanone], the AC50 was under 0.5 µM. Consider `Cc1ncccc1-c1nnc(C(=O)N2CCc3[nH]cnc3[C@@H]2c2cc3c(C(F)F)cccn3n2)o1` [Example 1395, (R)-(4-(4-(difluoromethyl)pyrazolo[1,5-a]pyridin-2-yl)-6,7-dihydro-1H-imidazo[4,5-c]pyridin-5(4H)-yl)(5-(2-methylpyridin-3-yl)-1,3,4-oxadiazol-2-yl)methanone], for which the AC50 was over 5 µM. Regarding `Cc1cccc(-c2nnc(C(=O)N3CCc4[nH]cnc4[C@H]3c3cc4cccc(Cl)n4n3)o2)n1` [Example 1396, (S)-(4-(7-chloropyrazolo[1,5-a]pyridin-2-yl)-6,7-dihydro-1H-imidazo[4,5-c]pyridin-5(4H)-yl)(5-(6-methylpyridin-2-yl)-1,3,4-oxadiazol-2-yl)methanone], the AC50 was under 0.5 µM.

In the case of `Cc1cccc(-c2nnc(C(=O)N3CCc4[nH]cnc4[C@@H]3c3cc4cccc(Cl)n4n3)o2)n1` [Example 1397, (R)-(4-(7-chloropyrazolo[1,5-a]pyridin-2-yl)-6,7-dihydro-1H-imidazo[4,5-c]pyridin-5(4H)-yl)(5-(6-methylpyridin-2-yl)-1,3,4-oxadiazol-2-yl)methanone], the AC50 lay in the range of 1 to 5 µM. In the case of `Cc1cccc(-c2nnc(C(=O)N3CCc4[nH]cnc4[C@@H]3c3cc4cccc(C)n4n3)o2)n1` [Example 1399, (R)-(4-(7-methylpyrazolo[1,5-a]pyridin-2-yl)-6,7-dihydro-1H-imidazo[4,5-c]pyridin-5(4H)-yl)(5-(6-methylpyridin-2-yl)-1,3,4-oxadiazol-2-yl)methanone], the AC50 fell in the range of 1 to 5 µM.

Consider `Cc1cccc(-c2nnc(C(=O)N3CCc4[nH]cnc4[C@H]3c3cc4cccc(C(F)(F)F)n4n3)o2)n1` [Example 1400, (S)-(5-(6-methylpyridin-2-yl)-1,3,4-oxadiazol-2-yl)(4-(7-(trifluoromethyl)pyrazolo[1,5-a]pyridin-2-yl)-6,7-dihydro-1H-imidazo[4,5-c]pyridin-5(4H)-yl)methanone], for which the AC50 is under 0.5 µM. The result for `Cc1cccc(-c2nnc(C(=O)N3CCc4[nH]cnc4[C@@H]3c3cc4cccc(C(F)(F)F)n4n3)o2)n1` [Example 1401, (R)-(5-(6-methylpyridin-2-yl)-1,3,4-oxadiazol-2-yl)(4-(7-(trifluoromethyl)pyrazolo[1,5-a]pyridin-2-yl)-6,7-dihydro-1H-imidazo[4,5-c]pyridin-5(4H)-yl)methanone] reads 1 to 5 µM. As to `Cn1nc(C(F)F)cc1C(=O)N1CCc2[nH]cnc2[C@H]1c1cc2cccc(C(F)F)n2n1` [Example 1402, (S)-(3-(difluoromethyl)-1-methyl-1H-pyrazol-5-yl)(4-(7-(difluoromethyl)pyrazolo[1,5-a]pyridin-2-yl)-6,7-dihydro-1H-imidazo[4,5-c]pyridin-5(4H)-yl)methanone], the AC50 lay within 0.5 to 1 µM.

Regarding `O=C(c1nnc(-c2ccn(C(F)F)n2)o1)N1CCc2[nH]cnc2[C@@H]1c1cc2cccc(F)n2n1` [Example 1404, (R)-(5-(1-(difluoromethyl)-1H-pyrazol-3-yl)-1,3,4-oxadiazol-2-yl)(4-(7-fluoropyrazolo[1,5-a]pyridin-2-yl)-6,7-dihydro-1H-imidazo[4,5-c]pyridin-5(4H)-yl)methanone], the AC50 was 1 to 5 µM. The result for `O=C(c1nnc(-c2ccn(C(F)F)n2)o1)N1CCc2[nH]cnc2[C@H]1c1cc2cccc(F)n2n1` [Example 1405, (S)-(5-(1-(difluoromethyl)-1H-pyrazol-3-yl)-1,3,4-oxadiazol-2-yl)(4-(7-fluoropyrazolo[1,5-a]pyridin-2-yl)-6,7-dihydro-1H-imidazo[4,5-c]pyridin-5(4H)-yl)methanone] reads under 0.5 µM. The result for `Cn1cc(-c2nnc(C(=O)N3CCc4[nH]cnc4[C@@H]3c3cc4cccc(C(F)F)n4n3)o2)cn1` [Example 1407, (R)-(4-(7-(difluoromethyl)pyrazolo[1,5-a]pyridin-2-yl)-6,7-dihydro-1H-imidazo[4,5-c]pyridin-5(4H)-yl)(5-(1-methyl-1H-pyrazol-4-yl)-1,3,4-oxadiazol-2-yl)methanone] reads over 5 µM. The result for `CC(C)(C)c1nnc(C(=O)N2CCc3[nH]cnc3[C@@H]2c2cc3c(C(F)F)cccn3n2)o1` [Example 1408, (R)-(5-(tert-butyl)-1,3,4-oxadiazol-2-yl)(4-(4-(difluoromethyl)pyrazolo[1,5-a]pyridin-2-yl)-6,7-dihydro-1H-imidazo[4,5-c]pyridin-5(4H)-yl)methanone] reads 1 to 5 µM; that for `CC(C)(C)c1nnc(C(=O)N2CCc3[nH]cnc3[C@H]2c2cc3c(C(F)F)cccn3n2)o1` [Example 1409, (S)-(5-(tert-butyl)-1,3,4-oxadiazol-2-yl)(4-(4-(difluoromethyl)pyrazolo[1,5-a]pyridin-2-yl)-6,7-dihydro-1H-imidazo[4,5-c]pyridin-5(4H)-yl)methanone], under 0.5 µM; that for `O=C(c1nnc(-c2ncccn2)o1)N1CCc2[nH]cnc2[C@@H]1c1cc2c(Cl)cccn2n1` [Example 1410, (R)-(4-(4-chloropyrazolo[1,5-a]pyridin-2-yl)-6,7-dihydro-1H-imidazo[4,5-c]pyridin-5(4H)-yl)(5-(pyrimidin-2-yl)-1,3,4-oxadiazol-2-yl)methanone], 1 to 5 µM.
